Test results taken from patent US20040024317A1, “Method for assessing capillary permeability” (priority 2002, published 2004).

Assay: Persistence length by light scattering
Type: physicochemical
Settings: little or no substitution; folded polypeptide
Description: An elongated, worm-like conformation of a macromolecule results in greater uptake than other conformations, such as folded, or globular conformations. Conformation may be measured by a persistence length of the molecule. This may be determined by light scattering.
The conformation attained by the present polymeric contrast agents is that of a worm-like shape being essentially a stretched out, extended chain with little folding. A measure of the “straightness” of a molecule is a persistence length. Persistence length is related to a radius of gyration, measured by light scattering experiments. A folded polypeptide such as poly-L-lysine (PLL) with little or no substitution, has a low persistence length of about 10 Angstroms (Å), and is not suitable for diagnosing sepsis. Therefore, the present polymeric contrast agents preferably have a persistence lengths of 100-600 Å.

poly-L-lysine [poly-L-lysine (PLL)]
persistence length: about 10 Angstroms (Å)
